# Experimental data published in patent US20120315654A1, “COMPOSITIONS AND METHODS FOR DETECTING CARDIOTOXICITY” (DUKE UNIVERSITY, priority 2011, published 2012).
# Columns and labels:
# RNCM [1] = assay: LDH release cytotoxicity assay in RNCM; assay type: cell-based, rat
# Protocol: Toxicity was assessed by quantifying the amount of lactate dehydrogenase (LDH) present in the culture media using PROMEGA's CYTOTOX96 NON-RADIOACTIVE ASSAY (PROMEGA, Madison, Wis.). Maximum cytotoxicity was determined by measuring the amount of LDH released in cells incubated with the kit's lysis buffer. The percentage of LDH released after DOX treatment was compared with that of controls.
# [2] = cited from earlier work
# Cr transporter (CrT) = molecular target: T1, Cr transporter (CrT) (Rattus norvegicus, UniProt P28570); assay: 14C-Cr transport in rat neonatal cardiomyocytes (RNCM) after DOX incubation; assay type: cell-based; details: 100 nmol/L DOX
# T1 construct: measuring ^14C—Cr uptake in primary RNCMs; endogenous in cells; host or cells: primary rat neonatal cardiomyocytes (RNCM)
# T1 sequence (P28570 1-635): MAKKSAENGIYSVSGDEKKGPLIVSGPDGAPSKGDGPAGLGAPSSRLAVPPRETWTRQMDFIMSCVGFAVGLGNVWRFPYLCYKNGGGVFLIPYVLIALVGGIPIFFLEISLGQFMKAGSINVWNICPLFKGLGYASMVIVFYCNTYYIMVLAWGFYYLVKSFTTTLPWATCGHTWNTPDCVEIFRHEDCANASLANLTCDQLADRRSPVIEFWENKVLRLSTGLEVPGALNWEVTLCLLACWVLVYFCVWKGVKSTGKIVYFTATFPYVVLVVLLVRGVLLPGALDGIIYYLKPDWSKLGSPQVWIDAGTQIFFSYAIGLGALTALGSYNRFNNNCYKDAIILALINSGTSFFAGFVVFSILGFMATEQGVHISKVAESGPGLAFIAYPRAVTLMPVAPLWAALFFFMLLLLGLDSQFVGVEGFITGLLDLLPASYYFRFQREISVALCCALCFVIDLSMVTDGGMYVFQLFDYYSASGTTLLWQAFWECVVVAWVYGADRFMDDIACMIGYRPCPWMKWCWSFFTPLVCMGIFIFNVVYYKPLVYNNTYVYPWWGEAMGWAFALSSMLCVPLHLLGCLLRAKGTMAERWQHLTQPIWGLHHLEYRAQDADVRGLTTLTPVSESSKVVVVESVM
# Protocol: Cells were plated on tissue culture dishes pre-coated with gelatin/fibronectin and allowed to grow in M199 media (INVITROGEN, Carlsbad, Calif.) containing 2% serum before experimentation. All animals were treated according to protocols approved by Duke University's Institutional Animal Care and Use Committee. HL-1 cells (passages 50 to 75), were plated onto fibronectin/gelatin-coated plates and cultured in CLAYCOMB media (SIGMA, St. Louis, Mo.) supplemented with 10% fetal bovine serum, 100 units/ml penicillin, 100 μg/ml streptomycin, 0.1 mM norepinephrine, and 2 mmol/L L-glutamine, as described previously (White S. M., et al., Am J Physiol Heart Circ Physiol 286: H823-829, 2004). The cultures were maintained in a humidified atmosphere of 5% CO2 at 37° C.
# Cr transport assays were performed after growth in control media for 0, 4, 12, 24 or 48 hrs.
# Cells used for Cr transport assays were cultured in 24-well plates coated with fibronectin and gelatin. […]
# For assays that measured Cr transport kinetics, the final Cr content in the uptake buffer ranged from 5 to 305 μmol/L. Uptake was terminated by aspiration of the radiolabeled solution, followed by 3 washes with ice-cold choline buffer. […] Cr transport was normalized to the protein concentration measured using the bicinchoninic acid (BCA) protein assay (PIERCE BIOTECHNOLOGY, Rockford, Ill.). […]
# RNCM [3] = assay: Caspase 3/7 apoptosis assay in RNCM; assay type: cell-based, rat; details: 100 nmol/L DOX, up to 48 hrs
# Protocol: Apoptosis was measured using PROMEGA's CASPASE-GLO 3/7 ASSAY SYSTEM (PROMEGA). Briefly, attached cells in a single 24-well plate were washed 3 times with ice-cold PBS and resuspended in 500 μl of 1% TRITON-X100; 10% glycerol; 2 mmol/L EDTA; 137 mmol/L NaCl; and 20 mmol/L Tris, pH 8.0. A mixture of 25 μL of lysate and 25 μL of caspase 3/7-assay reagent was prepared, and sequential luminescent readings were taken every 15 min for 4 hrs. Peak signal readings were normalized to protein content and plotted.
structure (smiles),measurement,setting,value
"COc1cccc2c1C(=O)c1c(O)c3c(c(O)c1C2=O)C[C@@](O)(C(=O)CO)C[C@@H]3O[C@H]1C[C@H](N)[C@H](O)[C@H](C)O1 [DOX, Doxorubicin]",LDH release,"RNCM [1]; 50 nmol/L DOX, through 48 hrs",not significantly elevated
same,Increase in LDH release compared with control,"RNCM [1]; 100 nmol/L DOX, 36 hrs",7%
same,Average steady-state concentration typically measured in patient plasma,[2],100 nmol/L
same,Decrease in Cr uptake,Cr transporter (CrT); 32 hrs before the 36 hrs point (FIG. 1A),37%
same,Cr transport (14C-Cr uptake),"Cr transporter (CrT); within 2-4 hrs of exposure, vs control media",decreased significantly
same,Apoptosis (caspase 3/7 activation),RNCM [3],No increase
